The values below come from PubChem BioAssay (NCI).

Each structure is given as a SMILES string. Converted amounts (≈) assume the structure as drawn. “And” between values parts separate entries of the source, which are not always exact repeats. Equal entries are not always repeated.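 In this assay, cells in 96-well plates receive the compound at five concentrations for 48 hours. Endpoints are linearly interpolated between the surrounding concentrations. Here, GI50 denotes the concentration required for 50% inhibition of growth. TGI is the concentration that stops growth completely.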 The source made the active and inactive calls. Rule as the data show it: active = GI50 below about 0.43 µM; inactive = the rest. Bounds are passed on as bounds.

Common to all, as to assay: NCI tumour cell line growth inhibition, 48 h
Assay [1] relates to HOP-18 NSCLC.
Assay [2] deals with RXF-631 renal.
For assay [3], the system named is KM20L2 colon.
For assay [4], the system named is DLD-1 colon.
In assay [5] the test system is XF 498 CNS.
In assay [6] the test system is P388/ADR leukemia.
Assay [7] concerns P388 leukemia.
In assay [8] the test system is SN12K1 renal.

`CSc1ccc2c(cc1=O)[C@@H](NC(=O)c1ccc(F)cc1)CCc1cc(O)c(O)c(O)c1-2`: the TGI in assay [1], in assay [2], in assay [3] and in assay [4] was over 100 µM each time.

`O=C(Nc1c(Cl)cc([N+](=O)[O-])cc1Cl)/C(=N\Nc1cccc(Cl)c1)c1c(O)c2ccccc2oc1=O`: the TGI in assay [2], in assay [3] and in assay [4] was over 100 µM each time.

With `COc1ccc([C@@H]2CC(=O)NCCCCNCCCN2)cc1`, the TGI in assay [1], in assay [5], in assay [3] and in assay [4] was over 100 µM in each case.

Take `COc1cc([C@@H]2c3cc4c(c(O)c3C[C@H]3COC(=O)[C@@H]32)OCO4)cc(OC)c1O`: the TGI in assay [6] is 0.992 µM; in assay [7] it was 1.9 µM; in assay [5], 0.702 µM; in assay [3] it was 0.0279 µM and 0.059 µM; in assay [4] it was over 200 µM. Also, the GI50 is 0.0105 µM and 0.0332 µM in assay [3]; 0.00421 µM and 0.02 µM in assay [4].

As for `CN1OC2OC(=O)OC2[C@H]1[C@H]1O[C@H](c2ccccc2)OC1(C)c1cc(OC(=O)c2ccccc2)ccc1OC(=O)c1ccccc1` (stereo partly drawn), the TGI in assay [5], in assay [2], in assay [3] and in assay [4] was over 50 µM each time.

On to `CC(=O)NC(CCCCNC(=O)N(C)N=O)C(=O)NCc1ccccc1` (stereo not drawn), for which the TGI in assay [5], in assay [2], in assay [3] and in assay [4] was over 100 µM throughout.

With `Cc1cc(NCCCCCCNc2cc(C)nc3ccc(Cl)cc23)c2cc(Cl)ccc2n1`, the TGI in assay [5] was 32 µM; in assay [2] it was over 100 µM; in assay [3], 32.4 µM; in assay [4] it was 30.8 µM.

`Nc1ccc(N)c2c1C(=O)c1c(N)ccc(N)c1C2=O`: the TGI is 64.7 µM in assay [1], over 89.2 µM in assay [5], over 100 µM in assay [3] and over 100 µM in assay [4].

For the compound `O=C(CSc1nnc(-c2ccc(N=Cc3ccc(Cl)cc3)cc2)o1)Nc1cccc(Cl)c1`, the TGI in assay [1], in assay [5] and in assay [3] was over 100 µM each time.

Turning to `S=C(Nc1ccccc1)N1N=C2c3ccccc3CC[C@H]2[C@@H]1c1ccccc1`, the TGI in assay [1], in assay [5], in assay [3] and in assay [4] was over 100 µM in each case.

Turning to `NC(N)=Nc1nc2ccccc2[nH]1`, the GI50 was 37.6 mg/L (≈ 215 µM) in assay [8], 6.34 mg/L (≈ 36.2 µM) in assay [6], 4.46 mg/L (≈ 25.4 µM) in assay [7] and 54.4 mg/L in assay [4]. The TGI was over 150 mg/L in assay [8], 41.5 mg/L in assay [6], 20.5 mg/L in assay [7] and over 150 mg/L in assay [4]. Besides, the result in assay [1], in assay [5] and in assay [3] was inactive.

On to `CC[C@]12C=CCN3CCC4(c5cc([C@@]6(C(=O)OC)CC7CN(CCc8c6[nH]c6ccccc86)C[C@@H]6CCC[C@H]76)c(OC)cc5N(C)C4[C@](O)(C(=O)OC)C1OC(C)=O)C32` (stereo partly drawn), for which the TGI is 0.209 µM in assay [3] and over 10 µM in assay [4].

For the compound `CCOC(=O)/C=C/c1ccccn1`, the TGI in assay [1], in assay [5], in assay [2] and in assay [4] was over 100 µM in each case.

`N#Cc1c2nc3ccccc3nc2n2ccc3ccccc3c12`: the TGI in assay [1] and in assay [4] was over 100 µM throughout.

`C/C(=N/N)c1ccc2[nH]c3c(C)cc([N+](=O)[O-])c(C)c3c2c1`: the values for the TGI in assay [1] and in assay [5] were 24 µM and 24.7 µM, respectively.

Regarding `COc1cc(C=O)c(-c2cc3c(cc2C=O)OCO3)c(OC)c1OC`, the TGI in assay [1] was over 290 µM; in assay [2] it was over 290 µM; in assay [3], 147 µM; in assay [4] it was over 290 µM.

For `Cc1cc(-c2ccccc2)cc2[n+]1CC=C2`, the TGI in assay [3] and in assay [4] was over 100 µM throughout.

As to `CC1OC(OC2CC(O)(C(=O)CO)Cc3c(O)c4c(c(O)c32)C(=O)c2ccccc2C4=O)CC(N)C1O` (stereo not drawn), the TGI in assay [1] was 0.0358 µM; in assay [5] it was 0.588 µM; in assay [2] it was 0.213 µM; in assay [3], 0.779 µM.

In the case of `O=C(c1ccccc1)c1c(CNCc2ccccc2)n(C(=O)c2ccccc2)c2ccccc12`, the TGI in assay [5], in assay [3] and in assay [4] was over 100 µM in each case.

Consider `CC1=NN(C(=O)Cc2ccccc2)C(=O)/C1=C\c1ccco1`, for which the TGI in assay [1], in assay [5] and in assay [4] was over 100 µM each time.
